Assay type in all cases: cell-based
One assay concerns the target T1, RAR alpha (Homo sapiens, UniProt P10276).
T1 sequence (P10276 183-417 limits assumed): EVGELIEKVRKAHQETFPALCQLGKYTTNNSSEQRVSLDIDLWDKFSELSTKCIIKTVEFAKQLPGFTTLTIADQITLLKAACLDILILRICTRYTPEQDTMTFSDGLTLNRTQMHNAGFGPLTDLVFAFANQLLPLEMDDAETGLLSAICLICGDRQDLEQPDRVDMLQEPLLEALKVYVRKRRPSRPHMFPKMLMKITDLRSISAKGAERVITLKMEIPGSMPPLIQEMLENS
The assay can be described thus: Transactivation test (luciferase reporter, HeLa stable transfectants), RAR alpha. To be noted: apparent Kd from Schild regression, cross curves against reference antagonist, HeLa cells; read-out: RAR alpha Kdapp. As for the experimental part: (§1) The activation of the receptors by an agonist (activator) in HeLa cells results in the expression of a reporter gene, luciferase, which, in the presence of a substrate, generates light. It is thus possible to measure the activation of the receptors by quantifying the luminescence produced after incubation of the cells in the presence of a reference antagonist. The activating products displace the antagonist from its site, thus allowing activation of the receptor. The activity is measured by quantifying the increase in the light produced. This measurement makes it possible to determine the activator activity of the compound that can be used in the invention.
(§2) In this study, a constant which represents the affinity of the molecule for the receptor is determined. Since this value can fluctuate according to the basal activity and the expression of the receptor, it is designated apparent Kd (KdApp).
(§3) The test product is used at 10 concentrations and the reference antagonist at 7 concentrations. In each well (of a 96-well plate), the cells are in contact with one concentration of the test product and one concentration of the reference antagonist.
(§4) Measurements are also carried out for the total agonist control, otherwise known as 100% control (4-[2-(5,5,8,8-tetramethyl-5,6,7,8-tetrahydronaphthalen-2-yl)propenyl]benzoic acid), and the inverse agonist control, otherwise known as 0% control (4-{(E)-3-[4-(4-tert-butylphenyl)-5,5,8,8-tetramethyl-5,6,7,8-tetrahydronaphthalen-2-yl)]-3-oxopropenyl}benzoic acid).
(§5) In the case of an agonist, the AC50 is calculated by plotting the curve of the product at the concentration of the reference ligand giving 80% activation. The percentage activation which corresponds to the maximum level of activity obtained is also measured.
(§6) The HeLa cell lines used are stable transfectants containing the plasmids ERE-βGlob-Luc-SV-Neo (reporter gene) and RAR (α, β, γ) ER-DBO-puro. These cells are seeded into 96-well plates at a rate of 10 000 cells per well in 100 μl of DMEM medium without phenol red and supplemented with 10% defatted calf serum. The plates are then incubated at 37° C., 7% CO2 for 4 hours.
(§7) The various dilutions of the test product, of the reference ligand
(§8) (4-(5,5-dimethyl-8-p-tolyl-5,6-dihydronaphthalen-2-ylethynyl)benzoic acid), of the 100% control (100 nM 4-[2-(5,5,8,8-tetramethyl-5,6,7,8-tetrahydronaphthalen-2-yl)propenyl]benzoic acid) and of the 0% control (500 nM 4-{(E)-3-[4-(4-tert-butylphenyl)-5,5,8,8-tetramethyl-5,6,7,8-tetrahydronaphthalen-2-yl)]-3-oxopropenyl}benzoic acid) are added at a rate of 5 μl per well. The plates are then incubated for 18 hours at 37° C., 7% CO2.
(§9) The culture medium is removed by turning the plates over, and 100 μl of a 1:1 PBS (phosphate buffered solution)/luciferin mixture are added to each well. After 5 minutes, the plates are read using the luminescence reader.
(Reporter assays use an easily measured gene product as a stand-in for the process of interest.)

In the next assay the target is T2, RAR beta (Homo sapiens, UniProt P10826).
T2 sequence (P10826 183-417 limits assumed): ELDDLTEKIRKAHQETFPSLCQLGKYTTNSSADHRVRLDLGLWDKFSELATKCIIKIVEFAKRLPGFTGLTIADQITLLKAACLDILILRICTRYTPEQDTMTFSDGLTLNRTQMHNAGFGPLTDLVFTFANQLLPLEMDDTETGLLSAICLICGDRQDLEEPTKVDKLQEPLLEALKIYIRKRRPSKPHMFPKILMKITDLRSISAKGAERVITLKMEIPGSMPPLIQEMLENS
In words: Transactivation test (luciferase reporter, HeLa stable transfectants), RAR beta. The following applies: apparent Kd from Schild regression, cross curves against reference antagonist, HeLa cells; read-out: RAR beta Kdapp. As for the experimental part:
as §1, §2, §3, §4, §5, §6, §7, §8, §9

A further assay deals with T3, RAR gamma (Homo sapiens, UniProt P13631).
T3 construct: RAR gamma Kdapp
T3 sequence (P13631 185-419 limits assumed): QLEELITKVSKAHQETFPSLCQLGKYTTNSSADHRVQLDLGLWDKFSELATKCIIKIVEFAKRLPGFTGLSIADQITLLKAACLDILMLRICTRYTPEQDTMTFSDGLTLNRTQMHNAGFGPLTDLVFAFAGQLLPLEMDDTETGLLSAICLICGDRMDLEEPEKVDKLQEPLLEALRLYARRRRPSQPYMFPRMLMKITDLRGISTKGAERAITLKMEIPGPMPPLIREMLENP
In words: Transactivation test (luciferase reporter, HeLa stable transfectants), RAR gamma. To be noted: apparent Kd from Schild regression, cross curves against reference antagonist, HeLa cells; read-out: RAR gamma Kdapp. As for the experimental part:
as §1, §2, §3, §4
In the case of an agonist, the AC50 is calculated by plotting the curve of the product at the concentration of the reference ligand giving 80% activation. The percentage activation which corresponds to the maximum level of activity obtained is also measured. […]
as §9

On to `CC1(C)CCC(C)(C)c2cc(-c3cc(-c4ccc(C(=O)O)cn4)ccc3-c3ccccc3)ccc21` [Example 47, 6-[2-(5,5,8,8-Tetramethyl-5,6,7,8-tetrahydronaphthalen-2-yl)biphenyl-4-yl]nicotinic acid], for which the figures for the Kd on RAR alpha and on RAR beta were 4 nM and 1 nM, respectively.

Consider `CC1(C)CCC(C)(C)c2cc(-c3cc(-c4ccc(C(=O)O)cc4O)ccc3-c3ccccc3)ccc21` [Example 42, 2″-Hydroxy-2′-(5,5,8,8-tetramethyl-5,6,7,8-tetrahydronaphthalen-2-yl)-[1,1′:4,1″]-tert-phenyl-4″-carboxylic acid], for which the figures for the Kd at RAR alpha and on RAR beta were 8 nM and 4 nM, respectively.

For the compound `CC1(C)CCC(C)(C)c2cc(-c3cc(-c4ccc(C(=O)O)cc4)ccc3-c3ccccc3)ccc21` [Example 14, 2′-(5,5,8,8-Tetramethyl-5,6,7,8-tetrahydronaphthalen-2-yl)-[1,1′:4′,1″]-tert-phenyl-4″-carboxylic acid], the figures for the Kd on RAR alpha and at RAR beta were 2 nM and 1 nM, respectively.

Consider `CC1(C)CCC(C)(C)c2cc(-c3cc(-c4ccc(C(=O)O)c(O)c4)ccc3-c3ccccc3)ccc21` [Example 46, 3″-Hydroxy-2′-(5,5,8,8-tetramethyl-5,6,7,8-tetrahydronaphthalen-2-yl)-[1,1′:4,1″]-tert-phenyl-4″-carboxylic acid], for which the figures for the Kd at RAR gamma, at RAR alpha and on RAR beta were 0.25 nM, 2 nM and 1 nM, respectively.

For `Cc1cc(-c2ccc(-c3ccccc3)c(-c3ccc4c(c3)C(C)(C)CCC4(C)C)c2)ccc1C(=O)O` [Example 41, 3″-Methyl-2′-(5,5,8,8-tetramethyl-5,6,7,8-tetrahydronaphthalen-2-yl)-[1,1′:4,1″]-tert-phenyl-4″-carboxylic acid], the Kd at RAR gamma came out at 0.25 nM; at RAR alpha, 2 nM; at RAR beta, 1 nM.

As to `COc1cc(C(=O)O)ccc1-c1ccc(-c2ccccc2)c(-c2ccc3c(c2)C(C)(C)CCC3(C)C)c1` [Example 44, 2″-Methoxy-2′-(5,5,8,8-tetramethyl-5,6,7,8-tetrahydronaphthalen-2-yl)-[1,1′:4,1″]-tert-phenyl-4″-carboxylic acid], the Kd at RAR gamma stood at 0.5 nM; at RAR alpha it was 4 nM; on RAR beta it was 2 nM.

The record behind these values is patent publication US8049034B2, “Biphenyl compound selective agonists of gamma RAR receptors” (Galderma Research & Development, priority 2005, dated 2011).
